“And” between values parts separate entries of the source, which are not always exact repeats. Equal values may be shown once.

The subject of data set [1] is Schistosoma mansoni worm couples. The data set is described as follows: S. mansoni ovipositing capacity and coupling. To be noted: initial test (Table 2); for inhibition at 50 µM / inhibition at 100 µM: Schistosoma mansoni, 120 h, read-out: Reduction in number of eggs (%). The procedure:
Stock solutions of 5 mM PZQ and the quinazoline derivatives 2–13 were prepared in DMSO. Concentrations of 100 µM, 50 µM, 25 µM, 10 µM and 5 µM were freshly prepared on the day of experiment in RPMI-1640 medium. All compounds were initially tested at 100 and 50 µM; those showing worm killing were further tested at 25, 10 and 5 µM. 12-well tissue culture plates were used, each well containing 6–8 worms with at least one worm couple. Worms were incubated overnight in a CO2 incubator at 37 °C. Each concentration was tested in duplicate wells. On day 4, eggs were counted and discarded and the medium was changed. On day 5 (end of observation period) newly deposited eggs were counted. The final egg number is the total count of days 4 and 5 for each concentration tested and the final recording of the percentage of egg reduction was determined as [the total number of eggs on days 4 and 5 of control – the total number of eggs on days 4 and 5 of treated]/the total number of eggs on days 4 and 5 of control × 100.

The test system of data set [2] is Schistosoma mansoni mature worms. The experiment in a line: In vitro S. mansoni worm killing. To be noted: Schistosoma mansoni, 120 h, day 5, initial test (Table 2), read-out: Worm killing (% of total). The procedure:
The percentage reduction of worm or egg burden in each treated group was calculated. […] Results are expressed as mean ± SEM. A two-tailed, unpaired Student’s t-test was used to detect the significance of difference between the means of different groups. […] Stock solutions of 5 mM PZQ and the quinazoline derivatives 2–13 were prepared in DMSO. Concentrations of 100 µM, 50 µM, 25 µM, 10 µM and 5 µM were freshly prepared on the day of experiment in RPMI-1640 medium. All compounds were initially tested at 100 and 50 µM; those showing worm killing were further tested at 25, 10 and 5 µM. Worms were obtained from SBSC of TBRI. Six to eight worms were placed in 12-well tissue culture plates and fresh RPMI-1640 medium (supplemented with glutamine, 20% newborn calf serum and streptomycin, penicillin, and gentamicin), containing the indicated concentration of the test compound was added[20]^,[21]. Worms were incubated overnight in a CO2 incubator at 37 °C. On the 2nd day, worms were examined by microscopy, washed three times with normal saline, fresh medium was added and the incubation was continued. On the 3rd day, worm motility was observed and on the 4th day, medium was changed again. On day 5 (end of the observation period), worms were microscopically examined for their motility and appearance. Each concentration was tested in duplicate, and the final recording of percent worm mortality was determined as the number of dead worms [contracted and opaque] divided by the total number of worms × 100. Negative controls used medium without additions or medium with 2% DMSO; positive control media containing identical concentrations of PZQ were tested in parallel.

Data set [3] can be described thus: Microsomal stability, human liver microsomes (S9), Phase-II (UGT enzymes). It is filed as in vitro ADME. As to conditions: UGT enzymes, 5 µM. The procedure: (§1) Mouse or human liver microsomes (S9), reduced nicotinamide adenine dinucleotide phosphate (NADPH) generating system solutions and uridine glucuronosyltransferase (UGT) reaction mix (BD Biosciences) were kept at −80 °C. The test compounds and reference compound diclofenac were formulated in DMSO at […]. The assay was carried out based on the BD Biosciences Guidelines for Use (TF000017 Rev1.0) with minor adaptations. The metabolic stability of the compounds was studied through the CYP450 superfamily (Phase-I metabolism) by fortification with NADPH and through UGT enzymes (Phase-II metabolism) by fortification with uridine diphosphate glucuronic acid (UDPGA). For CYP450 and other NADPH dependent enzymes, the compounds were incubated at 5 µM together with 0.5 mg/mL S9 in potassium phosphate buffer in a reaction started by the addition of 1 mM NADP. At defined time points, 20 µL was withdrawn from the reaction mixture and 80 µL cold acetonitrile (ACN) was added to inactivate the enzymes and precipitate the protein. The mixture was vortexed for 30 s and centrifuged at 4 °C for 5 min to collect the supernatant. For UGT enzymes, the compounds were incubated at 5 µM together with 0.5 mg/mL S9 in a reaction started by the addition of 2 mM UDPGA cofactor. The loss of parent compound was determined using liquid chromatography (UPLC) (Waters Aquity^TM) coupled with tandem quadrupole mass spectrometry (MS^2) (Waters Xevo^TM), equipped with an electrospray ionisation (ESI) interface and operated in multiple reaction monitoring (MRM) mode.
On the technique in general: Microsomes from liver hold many membrane-bound enzymes, among them those of drug oxidation.

The nature of data set [4]: Microsomal stability, human liver microsomes (S9), Phase-I (CYP450-NADPH). It is filed as in vitro ADME. As to conditions: CYP450-NADPH, 5 µM. Here is the method: as §1
Data set [5] in a line: Microsomal stability, mouse liver microsomes (S9), Phase-I (CYP450-NADPH). As to conditions: CYP450-NADPH, 5 µM. It is filed as in vitro ADME. Here is the method: as §1
Data set [6] can be described thus: Microsomal stability, mouse liver microsomes (S9), Phase-II (UGT enzymes). It is filed as in vitro ADME. As to conditions: UGT enzymes, 5 µM. The procedure: as §1

With `COc1ccc(Cn2c(=O)c3ccccc3n(Cc3ccc(C(F)(F)F)cc3)c2=O)cc1` [compound 3, 1-(4-(Trifluoromethyl)benzyl)3-(4-methoxybenzyl)quinazolin-2,4(1H,3H)-dione], in data set [1] (50 µM), the Uncoupling entry is recorded as “Yes” and the inhibition at 50 µM stood at 100%. Besides, in data set [1] (100 µM), the Uncoupling result is reported as “Yes” and the inhibition at 100 µM is 100%. Also, in data set [2], the killing at 50 µM was determined as 0% and the killing at 100 µM stood at 75%.
On to `COc1ccc(Cn2c(=O)c3cc(OC)c(OC)cc3n(Cc3ccc(C(F)(F)F)cc3)c2=O)cc1` [compound 11, 1-(4-(Trifluoromethyl)benzyl)-6,7-dimethoxy-3-(4-methoxybenzyl)quinazolin-2,4(1H,3H)-dione], for which, in data set [1] (50 µM), the Uncoupling entry was “Yes” and the inhibition at 50 µM was found to be 100%. Further, in data set [1] (100 µM), the Uncoupling result is on record as “Yes” and the inhibition at 100 µM worked out at 100%. In addition, in data set [2], the killing at 50 µM was determined as 0% and the killing at 100 µM came out at 86%.
As for `O=c1c2ccc(Br)cc2n(Cc2ccc(C(F)(F)F)cc2)c(=O)n1Cc1ccc(F)cc1` [compound 6, 7-Bromo-3-(4-fluorobenzyl)-1-(4-(trifluoromethyl)benzyl)quinazolin-2,4(1H,3H)-dione], in data set [1] (50 µM), the Uncoupling result is “Yes” and the inhibition at 50 µM came out at 100%. In data set [1] (100 µM), the Uncoupling result is listed as “Yes” and the inhibition at 100 µM is 100%. Moreover, in data set [2], the killing at 50 µM stood at 0% and the killing at 100 µM stood at 88%.
On to `O=C(O)Cc1ccccc1Nc1c(Cl)cccc1Cl` [Diclofenac, diclofenac, reference compound], for which the “% Parent compound remaining upon incubation” value amounted to 100% in data set [3] (0 min); 11% in data set [3] (15 min); 9% in data set [3] (30 min); 9% in data set [3] (60 min); 100% in data set [4] (0 min); 27% in data set [4] (15 min). Further, the “% Parent compound remaining upon incubation” value was 5% in data set [4] (30 min); 1% in data set [4] (60 min); 100% in data set [5] (0 min); 87% and 61% in data set [5] (15 min); 48% and 27% in data set [5] (60 min); 100% in data set [6] (0 min). Further, the “% Parent compound remaining upon incubation” value in data set [6] (15 min) was 41% and 34%; in data set [6] (30 min) it was 44% and 32%; in data set [6] (60 min) it was 34% and 30%.
With `COc1ccc(Cn2c(=O)c3ccc(Br)cc3n(Cc3ccc(C(F)(F)F)cc3)c2=O)cc1` [compound 7, 7-Bromo-1-(4-(trifluoromethyl)benzyl)-3-(4-methoxybenzyl)quinazolin-2,4(1H,3H)-dione], in data set [1] (50 µM), the Uncoupling entry is “No” and the inhibition at 50 µM is 35%. Moreover, in data set [1] (100 µM), the Uncoupling result is “No” and the inhibition at 100 µM is 50%. In addition, in data set [2], the killing at 50 µM stood at 0% and the killing at 100 µM was determined as 0%.
In the case of `O=c1c2cc(Cl)ccc2n(Cc2ccc(C(F)(F)F)cc2)c(=O)n1Cc1ccc(F)cc1` [compound 8, 6-Chloro-3-(4-fluorobenzyl)-1-(4-(trifluoromethyl)benzyl)quinazolin-2,4(1H,3H)-dione], in data set [1] (50 µM), the Uncoupling entry is “Yes” and the inhibition at 50 µM was determined as 100%. For the same molecule, in data set [1] (100 µM), the Uncoupling result is “Yes” and the inhibition at 100 µM is 100%. Besides, in data set [2], the killing at 50 µM turned out to be 0% and the killing at 100 µM came out at 100%.
In the case of `COc1ccc(Cn2c(=O)c3cc(Br)ccc3n(Cc3ccc(C(F)(F)F)cc3)c2=O)cc1` [compound 5, 6-Bromo-1-(4-(trifluoromethyl)benzyl)-3-(4-methoxybenzyl)quinazolin-2,4(1H,3H)-dione], in data set [1] (50 µM), the Uncoupling entry is given as “No” and the inhibition at 50 µM was found to be 31%. In addition, in data set [1] (100 µM), the Uncoupling result is “Yes” and the inhibition at 100 µM came out at 100%. In addition, in data set [2], the killing at 50 µM was 0% and the killing at 100 µM was determined as 100%.
As for `COc1ccc(Cn2c(=O)c3cc(C)cc(Br)c3n(Cc3ccc(C(F)(F)F)cc3)c2=O)cc1` [compound 13, 8-Bromo-1-(4-(trifluoromethyl)benzyl)-3-(4-methoxybenzyl)-6-methylquinazolin-2,4(1H,3H)-dione], in data set [1] (50 µM), the Uncoupling result is “Yes” and the inhibition at 50 µM is 100%. Further, in data set [1] (100 µM), the Uncoupling entry is recorded as “Yes” and the inhibition at 100 µM was found to be 100%. Also, in data set [2], the killing at 50 µM came out at 0% and the killing at 100 µM is 33%.
As for `O=c1c2cc(Br)ccc2n(Cc2ccc(C(F)(F)F)cc2)c(=O)n1Cc1ccc(F)cc1` [compound 4, 6-Bromo-3-(4-fluorobenzyl)-1-(4-(trifluoromethyl)benzyl)quinazolin-2,4(1H,3H)-dione], in data set [1] (50 µM), the Uncoupling entry is reported as “Yes” and the inhibition at 50 µM stood at 100%. For the same molecule, in data set [1] (100 µM), the Uncoupling entry was “Yes” and the inhibition at 100 µM is 100%. Besides, in data set [2], the killing at 50 µM is 13% and the killing at 100 µM turned out to be 100%.
Take `Cc1cc(Br)c2c(c1)c(=O)n(Cc1ccc(F)cc1)c(=O)n2Cc1ccc(C(F)(F)F)cc1` [compound 12, 8-Bromo-3-(4-fluorobenzyl)-1-(4-(trifluoromethyl)benzyl)-6-methylquinazolin-2,4(1H,3H)-dione]: in data set [1] (50 µM), the Uncoupling result is on record as “No” and the inhibition at 50 µM was 50%. For the same molecule, in data set [1] (100 µM), the Uncoupling result is listed as “Yes” and the inhibition at 100 µM was 100%. Moreover, in data set [2], the killing at 50 µM amounted to 0% and the killing at 100 µM stood at 0%.
As to `O=c1c2ccccc2n(Cc2ccc(C(F)(F)F)cc2)c(=O)n1Cc1ccc(F)cc1` [compound 2, 3-(4-Fluorobenzyl)-1-(4-(trifluoromethyl)benzyl)quinazolin-2,4(1H,3H)-dione], in data set [1] (50 µM), the Uncoupling entry was “No” and the inhibition at 50 µM was found to be 100%. Further, in data set [1] (100 µM), the Uncoupling entry is listed as “Yes” and the inhibition at 100 µM stood at 100%. Moreover, in data set [2], the killing at 50 µM came out at 0% and the killing at 100 µM was 100%.

These data come from publication PMC7717570, “Deciphering the enzymatic target of a new family of antischistosomal agents bearing a quinazoline scaffold using complementary computational tools” (Journal of Enzyme Inhibition and Medicinal Chemistry, 2020).
